According to patent US6545021B1, “Use of substituted-1,5-dideoxy-1,5-imino-D-glucitol compounds for treating hepatitis virus infections” (G.D. Searle & Co., priority 1999, dated 2003):

What was measured:
[1] = tested on: HBV; assay: Cell culture experiments with N-nonyl-DNJ: total HBV DNA and immune precipitated DNA; format: cell-based, hepatitis B virus
Description: (§1) There are two measures of drug efficacy: reduction in total HBV DNA (measured by quantitative PCR), and reduction in HBV DNA from capsids with intact surface glycoproteins, which is the active form of the virus (measured by an ELISA-like immune precipitation assay followed by quantitative PCR).

[2] = tested on: woodchuck hepatitis virus (WHV); assay: Woodchuck model, N-nonyl-DNJ monotherapy, BID oral dosing; format: in vivo
Description: Therefore, five groups of four animals each (all groups had both sexes, all but the control had two of each sex) were assigned to 0, 12.5, 25, 50, and 100 mg/kg/day with BID oral dosing. These were lab-reared wild animals. All animals were infected with woodchuck hepatitis virus (WHV) as neonates, and had been tested positive on serological tests for WHV surface antigen. Blood samples were drawn one week prior to dosing (−1 week), immediately before dosing (0 weeks), weekly during dosing (1, 2, 3, and 4 weeks), and after the end of dosing (5, 6, 8, and 10 weeks).
as §1
Before models are fitted to the data, a log transform was applied because: 1) the variation in IPDNA increases with increasing IPDNA values; the log transformation gives values with a nearly constant variation, and 2) it is expected that drug effects will appear as a constant multiplier of the IPDNA level. Because there are zero values of IPDNA, a small value (about ½ of the smallest non-zero value) was added to all values before the log transform.
Two approaches were used to model the changes in slope to week with dose of N-nonyl-DNJ: a linear modeling approach and a nonlinear model. Both approaches assume that the (linear) rate of change of the Log(IPDNA) measure over the dosing period is the “right” measure to reflect the effect of the drug on the virus. Both approaches are fit in stages, and the first stage is common to both approaches. First, a simple straight line regression model is fit using weeks 0-4 to predict log(IPDNA_+—10) separately for each animal by run combination. In the second stage, the response variable is the slope fitted in the first stage.
For the linear approach, a model is fit with slope to week as the response where run is considered a block, dose has a significant effect (almost all of this effect is due to a slope to dose), and the relevant error for testing the effect of dose is the variation among animals treated alike (after the adjustment for the runs as blocks). This is similar to using the calibration data within each run to first adjust each run's data to a common virus DNA concentration; the difference is that here the data from the woodchucks are used for the run adjustment rather than only the calibration data.
For the nonlinear approach, a four parameter logistic model is fit with the slope to week as the response and the dose as the predictor. Again, run is considered a block, but because no run has all weeks, it is not possible to fully reflect the blocking in the nonlinear approach. […] The average maximum slope observed was 2.71 additional Log(IPDNA g/mL)/week, or an increase of about 150%/week, the average minimum slope observed with N-nonyl-DNJ is 0.31 fewer Log(IPDNA g/mL)/week), or about a decrease of about 25%/week. The slopes, the fitted model, the parameter estimates from the model, and the approximate standard errors for these parameters are all shown in FIG. 3. […] Whether in woodchucks or humans, the effective dose of both the N-alkyl-DNJ and nucleoside or nucleotide antiviral agent administerd in combination therewith can be administerd in two equal daily subdoses (i.e., B.I.D.).

CCCCCCCCCN1C[C@H](O)[C@@H](O)[C@H](O)[C@H]1CO [N-nonyl-DNJ, N-(n-nonyl)-1,5-dideoxy-1,5-imino-D-glucitol]
effect on the immune precipitated DNA (IPDNA) [1]: marked effect
effect on total HBV DNA [1]: little or no effect
effect on total HBV DNA measurements ([2]; all dose levels, quantitative PCR): no effect
levels of IPDNA over the dosing period ([2]; high dose animals, weeks 0-4): decreasing levels of IPDNA
levels of IPDNA over the dosing period ([2]; low dose animals, weeks 0-4): increasing levels of IPDNA
average minimum slope observed ([2]; weeks 0-4): 0.31 fewer Log(IPDNA g/mL)/week
decrease of IPDNA per week at average minimum slope ([2]; weeks 0-4): about 25 %/week
approximate effective monotherapy dose ([2]; woodchucks): about 16 mg/kg/day
